“And” between values parts separate entries of the source, which are not always exact repeats. Identical values can stand only once.
Key:
[1] = UPLC-MS/MS quantification of EXE and its metabolites in plasma of subjects taking EXE; format: in vivo, human; conditions: for Plasma Percentage of TEM (Mean ± S.E.): TEM = EXE + 17β-DHE + 17β-DHE-Gluc + 6-EXE-cys + 6-DHE-cys, calculated per subject, then mean of 132; for Plasma concentration, Mean ± S.E. / Plasma concentration, Range: n = 132 subjects; for Plasma concentration, Mean ± S.E.: 25 mg EXE daily orally for at least 28 days, sampled 4-6 hours after pill; for Plasma concentration, Range: 25 mg EXE daily orally, 4-6 hours after pill
Description: (§1) One hundred and thirty-two postmenopausal breast cancer patients (one Hispanic, two African Americans, two Asians, and 127 Caucasians; age range: 35–89 years) with ER+ breast tumors were recruited into this study from the Breast Oncology Clinic at the Penn State Hershey Cancer Institute. Approval was obtained from the Institutional Review Board at Penn State University with informed consent obtained from all subjects. Subjects took a single pill (25 mg) of EXE daily (orally) for at least 28 consecutive days and provided blood (10 ml) and urine (up to 50 ml) specimens between 4 and 6 hours after pill ingestion as described previously ([Luo et al., 2018]). Blood was separated by centrifugation at 1300g for 15 minutes at room temperature. Aliquoted plasma and buffy coat fractions of blood samples and aliquoted urine samples were stored at −80°C until analysis. As a control for EXE metabolism, specimens obtained from women not taking EXE who were recruited into other studies at Penn State University College of Medicine (Hershey, PA; n = 10) were also examined to exclude false positives ([Ashmore et al., 2013]).
To quantify in vivo levels of EXE and its metabolites, the sample preparation method was modified from that described earlier for metabolite identification. For EXE metabolite analysis in plasma, a 2.5-µl aliquot of each plasma sample was first spiked with 2.5 µl of a mixture of deuterium-labeled internal standards in methanol [D3-EXE (0.17 μM), D3-17β-DHE (1.7 μM), 17β-OH-EXE-d3-17-O-β-D-glucuronide (0.52 μM), D3-6-EXE-cys (0.06 μM), and D3-6-17β-DHE-cys (0.25 μM)]. Twenty microliters of pure methanol was then added to extract EXE and its metabolites and to precipitate proteins. After vortexing and subsequent centrifugation at 16,100g for 10 minutes at 4°C, 15 µl of the supernatant was transferred to a sample vial and mixed with 15 µl of water prior to analysis by UPLC-MS.
(§2) For the simultaneous quantification of EXE, 17β-DHE, 17β-DHE-Gluc, 6-EXE-cys, and 6-17β-DHE-cys, urine and plasma samples were prepared as described earlier. Using the same UPLC-MS system described earlier, UPLC was performed with solvent A (5 mM ammonium formate and 0.01% formic acid in water) and solvent B (100% acetonitrile) using the following conditions for both urine and plasma specimens: 0–1.5 minutes at 25% solvent B, a linear gradient to 52% solvent B for 1.5–2.5 minutes, 2.5–4.5 minutes at 52% solvent B, a linear gradient to 95% solvent B from 4.5 to 5 minutes, 5–9.5 minutes at 95% solvent B, followed by a linear gradient to initial conditions of 25% solvent B from 9.5 to 10 minutes. This was followed by a 1-minute run at 25% solvent B to equilibrate the column to initial conditions before the next sample injection. The flow rate was 0.4 ml/min from 0 to 5 minutes, 0.8 ml/min from 5 to 9.5 minutes, and back to 0.4 ml/min from 9.5 to 10 minutes. The injection volume of each prepared urine and plasma sample was 5 µl. The column temperature was 35°C. The Waters XEVO G2-S QTOF MS was operated in tandem mass spectrometry (MS/MS) mode, with the electrospray ionization probe operated in the positive-ion mode and a capillary voltage at 0.6 kV. The cone and desolvation gas flow rates were maintained at 50 and 800 l/h, respectively, and the collision gas flow rate was 0.1 l/h. The source and desolvation gas temperatures were 120°C and 500°C, respectively, and the dwell time for each ion was 300 ms.
(§3) The limits of quantification for EXE, 17β-DHE, 17β-DHE-Gluc, 6-EXE-cys, and 6-17β-DHE-cys were 2.1, 1.6, 1.2, 0.7, and 7.2 nM in plasma, respectively, and 2.1, 1.6, 6.3, 1.5, and 7.2 nM in urine, respectively. Standard curves were constructed by plotting the ratio of analyte peak area to peak area of the corresponding internal standard (described earlier) versus concentration of analyte standard. The concentrations of stock standards were 1000 ppm. […]

[2] = UPLC-MS/MS quantification of EXE and its metabolites in urine of subjects taking EXE; format: in vivo, human; conditions: for Urine Percentage of TEM (Mean ± S.E.): TEM = EXE + 17β-DHE + 17β-DHE-Gluc + 6-EXE-cys + 6-DHE-cys, calculated per subject, then mean of 132; for Urine concentration, Mean ± S.E. / Urine concentration, Range: n = 132 subjects; for Urine concentration, Mean ± S.E.: 25 mg EXE daily orally for at least 28 days, sampled 4-6 hours after pill; for Urine concentration, Range: 25 mg EXE daily orally, 4-6 hours after pill
Description: as §1
For EXE metabolite analysis in urine, a 2.5-µl aliquot of each urine sample was first spiked with 2.5 µl of the same deuterium-labeled internal standard mixture described earlier. Ten microliters of 75% methanol was then added to extract EXE and its metabolites. After vortexing and subsequent centrifugation at 16,100g for 10 minutes at 4°C, 10 µl of the supernatant was transferred to a sample vial and mixed with 5 µl of water prior to analysis by UPLC-MS.
as §2
as §3, with “ppm. A serial dilution of standards at concentrations ranging from 1.6 nM to 1.7 μM, 1.6 nM to 1.7 μM, 1.0 nM to 2.1 μM, 0.7 nM to 12 μM, and 4.6 nM to 2.4 μM was used to establish standard curves for EXE, 17β-DHE, 17β-DHE-Gluc, 6-EXE-cys, and 6-17β-DHE-cys, respectively.” for “ppm.”

[3] = in vivo; cited from earlier work
[4] = ref Luo et al., 2018, cited from earlier work

| Compound | Urine concentration range as printed in the discussion ([2]; female, human, in vivo) [pM] | Plasma Percentage of TEM (Mean ± S.E.) ([1]; plasma) | Plasma concentration, Mean ± S.E. ([1]; plasma) | Plasma concentration, Range ([1]; plasma) [nM] | Urine Percentage of TEM (Mean ± S.E.) ([2]; urine) | Urine concentration, Mean ± S.E. ([2]; urine) | Urine concentration, Range ([2]; urine) | also measured |
| --- | --- | --- | --- | --- | --- | --- | --- | --- |
| C[C@]12C=CC(=O)C=C1C(CSC[C@H](N)C(=O)O)C[C@@H]1[C@@H]2CC[C@]2(C)C(=O)CC[C@@H]12 (single isomer, unassigned) [6-EXE-cys, 6-methylcysteinylandrosta-1,4-diene-3,17-dione] | 3.3 to 50000 |  |  |  |  |  |  | Share of the total mean cysteine conjugate levels in plasma ([1]; female, human, in vivo): 79%; Share of the total mean cysteine conjugate levels in urine ([2]; female, human, in vivo): 77% |
| C[C@]12CC[C@H]3[C@@H](CC(CSC[C@H](N)C(=O)O)C4=CC(=O)C=C[C@@]43C)[C@@H]1CC[C@@H]2O (stereo partly drawn) [6-17β-DHE-cys, 6-methylcysteinylandrosta-1,4-diene-17β-hydroxy-3-one] | 3.3 to 10000 |  |  |  |  |  |  |  |
| CSc1ncnc2c1ncn2[C@@H]1O[C@H](CO)[C@@H](O)[C@H]1O [6-methylmercaptopurine riboside] |  |  |  |  |  |  |  | Fold lower levels in GSTM1-null genotype than in carriers of one or two copies of GSTM1 [3]: 2 fold |
| C=C1CC2C(CCC3(C)C(O)CCC23)C2(C)C=CC(=O)C=C12 (stereo not drawn) [17β-DHE, 17β-dihydro-EXE] |  | 12% and 12 ± 1.2% | 2.5 nM and 2.5 ± 0.19 nM | 0.11 to 14 | 0.14% and 0.14 ± 0.025% | 0.0066 nmol/mg creatinine and 0.0066 ± 0.0012 nmol/mg creatinine | 0–0.099 nmol/mg creatinine | Fold lower average percentage of TEM than 17β-DHE-Gluc ([1]; plasma): 3 fold; Increase in plasma level with increasing numbers of the UGT2B17 deletion allele ([4]; same women taking EXE): 1.3 fold |
| C=C1C[C@H]2[C@@H]3CC[C@H](O[C@@H]4O[C@H](C(=O)O)[C@@H](O)[C@H](O)[C@H]4O)[C@@]3(C)CC[C@@H]2[C@@]2(C)C=CC(=O)C=C12 [17β-DHE-Gluc, 17β-hydroxy-EXE-17-O-β-D-glucuronide] |  | 36% and 36 ± 1.8% | 30 nM and 30 ± 4.6 nM | 0.32 to 358 | 21% and 21 ± 1.6% | 1.4 nmol/mg creatinine and 1.4 ± 0.37 nmol/mg creatinine | 0.0068–45 nmol/mg creatinine | Ratio of mean combined cysteine conjugates (6-EXE-cys plus 6-17β-DHE-cys) to 17β-DHE-Gluc in urine ([2]; urine, 17β-DHE-Gluc is the lower): 5.5 fold; Decrease in plasma level with increasing numbers of the UGT2B17 deletion allele ([4]; women taking EXE): up to 29 fold |
| C=C1C[C@@H]2[C@H](CC[C@]3(C)C(=O)CC[C@@H]23)[C@@]2(C)C=CC(=O)C=C12 [EXE, Exemestane] |  | 17% and 17 ± 0.91% | 14 nM and 14 ± 1.7 nM | 0 to 105 | 1.7% and 1.7 ± 0.20% | 0.21 ± 0.045 nmol/mg creatinine | 0–3.2 nmol/mg creatinine |  |
